In patent US20260364214A1, “MULTIVALENT FIBROBLAST ACTIVATION PROTEIN LIGANDS FOR TARGETED DELIVERY APPLICATIONS” (Philochem AG, priority 2022, published 2026):

Test system: SK-RC-52.hFAP tumors
Experiment: Quantitative biodistribution in SK-RC-52.hFAP tumor bearing mice
Type: in vivo, mouse (female athymic Balb/c AnNRj-Foxn1)
Details: i.v. 250 nmol/kg, 50 MBq/kg
Description: SK-RC-52.hFAP were grown to 80% confluence in RPMI-1640 with 10% fetal bovine serum (FBS) and 1% antibiotic-antimycotic and detached with Trypsin-EDTA (ethylenediaminetetraacetic acid) 0.05%. Tumor cells were resuspended in Hanks' Balanced Salt Solution medium. Aliquots of 5 million cells (100 μL of suspension) were injected subcutaneously in the right flank of female athymic Balb/c AnNRj-Foxn1 mice (6 to 8 wk of age).
Radiolabeling of ESV6-DOTAGA, Bi-ESV6-DOTAGA, Tri-ESV6-DOTAGA, Tetra-ESV6-DOTAGA, Hexa-ESV6-DOTAGA, Octa-ESV6-DOTAGA and FAP-2286 with lutetium-177 (a therapeutic radionuclide) was performed with different specific activities for three different studies (biodistribution, therapy and dose optimization).
Prior to the biodistribution study, precursors (100 nmol) were dissolved in 100 μL of milliQ water and diluted with 200 μL of sodium acetate (1 M in water, pH=4.5). 20 MBq of ^177Lu solution were added and the mixture was heated at 90 °C for 10 minutes, followed by dilution with […] of PBS to achieve final volume of 2 mL (20 doses of 100 μL each).
ESV6-DOTAGA, Bi-ESV6-DOTAGA, Tri-ESV6-DOTAGA, Tetra-ESV6-DOTAGA, Hexa-ESV6-DOTAGA, Octa-ESV6-DOTAGA and FAP-2286 were radiolabeled with ^177Lu as described above. Tumors were allowed to grow to an average volume of 300 mm^3. Mice were randomized and injected intravenously with radiolabeled preparations of ^177Lu-ESV6, ^177Lu-Bi-ESV6, ^177Lu-Tri-ESV6, Tetra-ESV6-DOTAGA, Hexa-ESV6-DOTAGA, Octa-ESV6-DOTAGA or ^177Lu-FAP-2286 (250 nmol/kg; 50 MBq/kg). Mice were euthanized at different time-points after the intravenous injection by CO2 asphyxiation. Tumors, organs, and blood were collected, weighted, and radioactivity was measured with a Packard Cobra Gamma Counter. Values are expressed as percent ID/g±SD [FIG. 4]. The % ID/g in the tumors was corrected considering the SK-RC-52.hFAP tumor growth rate.
Quantitative in vivo biodistribution of ^177Lu-ESV6-DOTAGA, ^177Lu-Bi-ESV6-DOTAGA, ^177Lu-Tri-ESV6-DOTAGA, ^177Lu-FAP-2286, Tetra-ESV6-DOTAGA, Hexa-ESV6-DOTAGA and Octa-ESV6-DOTAGA at different time points after intravenous administration (250 nmol/kg, 50 MBq/kg) in mice bearing SK-RC-52.hFAP tumors, are shown in Tables 1 to 4 and 10 to 12. Data are reported as % ID/g±standard deviation.
Tumor-to-organ ratios of ^177Lu-ESV6-DOTAGA, ^177Lu-Bi-ESV6-DOTAGA, ^177Lu-Tri-ESV6-DOTAGA, ^177Lu-FAP-2286, Tetra-ESV6-DOTAGA, Hexa-ESV6-DOTAGA and Octa-ESV6-DOTAGA, at different time points after intravenous administration (250 nmol/kg, 50 MBq/kg) in mice bearing SK-RC-52.hFAP tumors, are shown in Tables 5 to 8 and 13 to 15. Avg.=average; Std.d=standard deviation.

## N#C[C@@H]1CC(F)(F)CN1C(=O)CNC(=O)c1ccnc2c(NC(=O)CCC(=O)NCCNC(=O)CCOCC(COCCC(=O)NCCNC(=O)CCC(=O)Nc3cccc4c(C(=O)NCC(=O)N5CC(F)(F)C[C@H]5C#N)ccnc34)NC(=O)CCOCC(COCCC(=O)NC(COCCC(=O)NCCNC(=O)CCC(=O)Nc3cccc4c(C(=O)NCC(=O)N5CC(F)(F)C[C@H]5C#N)ccnc34)COCCC(=O)NCCNC(=O)CCC(=O)Nc3cccc4c(C(=O)NCC(=O)N5CC(F)(F)C[C@H]5C#N)ccnc34)NC(=O)CCC(C(=O)O)N3CCN(CC(=O)[O-])CCN(CC(=O)[O-])CCN(CC(=O)[O-])CC3)cccc12.[177Lu+3] (stereo partly shown) [^177Lu-Tetra-ESV6-DOTAGA]
6 h
  Tumor to organs ratio, Blood: 53.01
  Tumor to organs ratio, Heart: 114.60
  Tumor to organs ratio, Intestine: 86.50
  Tumor to organs ratio, Kidney: 27.69
  Tumor to organs ratio, Liver: 15.19
  Tumor to organs ratio, Lung: 52.76
  Tumor to organs ratio, Muscle: 61.99
  Tumor to organs ratio, Spleen: 44.00
  Tumor to organs ratio, Tail: 24.06
6 h post injection
  Injected dose per gram, Blood: 1.16 % ID/g
  Injected dose per gram, Heart: 0.50 % ID/g
  Injected dose per gram, Intestine: 0.70 % ID/g
  Injected dose per gram, Kidney: 2.10 % ID/g
  Injected dose per gram, Liver: 3.81 % ID/g
  Injected dose per gram, Lung: 1.09 % ID/g
  Injected dose per gram, Muscle: 0.94 % ID/g
  Injected dose per gram, Spleen: 1.33 % ID/g
  Injected dose per gram, Tail: 1.85 % ID/g
  Injected dose per gram, Tumor: 57.25 % ID/g
24 h
  Tumor to organs ratio, Blood: 146.80
  Tumor to organs ratio, Heart: 166.10
  Tumor to organs ratio, Intestine: 284.15
  Tumor to organs ratio, Kidney: 23.62
  Tumor to organs ratio, Liver: 9.42
  Tumor to organs ratio, Lung: 138.32
  Tumor to organs ratio, Muscle: 98.07
  Tumor to organs ratio, Spleen: 20.72
  Tumor to organs ratio, Tail: 36.71
24 h post injection
  Injected dose per gram, Blood: 0.29 % ID/g
  Injected dose per gram, Heart: 0.26 % ID/g
  Injected dose per gram, Intestine: 0.15 % ID/g
  Injected dose per gram, Kidney: 1.79 % ID/g
  Injected dose per gram, Liver: 4.52 % ID/g
  Injected dose per gram, Lung: 0.35 % ID/g
  Injected dose per gram, Muscle: 0.44 % ID/g
  Injected dose per gram, Spleen: 2.19 % ID/g
  Injected dose per gram, Tail: 1.16 % ID/g
  Injected dose per gram, Tumor: 42.15 % ID/g
96 h
  Tumor to organs ratio, Blood: 1062.04
  Tumor to organs ratio, Heart: 133.14
  Tumor to organs ratio, Intestine: 213.10
  Tumor to organs ratio, Kidney: 2.36
  Tumor to organs ratio, Liver: 2.07
  Tumor to organs ratio, Lung: 69.86
  Tumor to organs ratio, Muscle: 288.08
  Tumor to organs ratio, Spleen: 3.88
  Tumor to organs ratio, Tail: 24.96
96 h post injection
  Injected dose per gram, Blood: 0.01 % ID/g
  Injected dose per gram, Heart: 0.12 % ID/g
  Injected dose per gram, Intestine: 0.07 % ID/g
  Injected dose per gram, Kidney: 5.77 % ID/g
  Injected dose per gram, Liver: 6.64 % ID/g
  Injected dose per gram, Lung: 0.24 % ID/g
  Injected dose per gram, Muscle: 0.06 % ID/g
  Injected dose per gram, Spleen: 3.64 % ID/g
  Injected dose per gram, Tail: 0.54 % ID/g
  Injected dose per gram, Tumor: 13.36 % ID/g

## N#C[C@@H]1CC(F)(F)CN1C(=O)CNC(=O)c1ccnc2c(NC(=O)CCC(=O)NCCNC(=O)CCOCC(COCCC(=O)NCCNC(=O)CCC(=O)Nc3cccc4c(C(=O)NCC(=O)N5CC(F)(F)C[C@H]5C#N)ccnc34)(COCCC(=O)NCCNC(=O)CCC(=O)Nc3cccc4c(C(=O)NCC(=O)N5CC(F)(F)C[C@H]5C#N)ccnc34)NC(=O)CCC(C(=O)O)N3CCN(CC(=O)O)CCN(CC(=O)O)CCN(CC(=O)O)CC3)cccc12 (stereo partly drawn) [Tri-ESV6-DOTAGA, 2,2′,2″-(10-(19-carboxy-1-((4-((2-((S)-2-cyano-4,4-difluoropyrrolidin-1-yl)-2-oxoethyl)carbamoyl)quinolin-8-yl)amino)-14,14-bis((3-((2-(4-((4-((2-((S)-2-cyano-4,4-difluoropyrrolidin-1-yl)-2-oxoethyl)carbamoyl)quinolin-8-yl)amino)-4-oxobutanamido)ethyl)amino)-3-oxopropoxy)methyl)-1,4,9,16-tetraoxo-12-oxa-5,8,15-triazanonadecan-19-yl)-1,4,7,10-tetraazacyclododecane-1,4,7-triyl)triacetic acid]
  tumor uptake / biodistribution profile, in words: remarkably high tumor uptake even after 48, 72 and 96 hours post injection
